In the NIST ThermoML archive (doi:10.1021/acs.jced.8b00499):

How the values were obtained:
[1] = Liquid; for vapor or sublimation pressure: Ebulliometric method (Recirculating still); for viscosity / mass density: 298.15 K, 101.33 kPa; for viscosity: Capillary tube (Ostwald / Ubbelohde) method; for mass density: Pycnometric method
[2] = refractive index (Na D-line) (dimensionless); details: 298.15 K; 101.33 kPa; Liquid; Standard Abbe refractometry

CO [methanol]
Details	vapor or sublimation pressure [kPa]
[1], 337.83 K	101.3

CCCCO [butan-1-ol]
Details	mass density [kg/m3]	refractive index	viscosity [mPa·s]
[1]	806	–	2.534
[2]	–	1.3972	–

Details	vapor or sublimation pressure [kPa]
[1], 390.9 K	101.3

CCC(C)O (stereo unspecified) [butan-2-ol]
Details	mass density [kg/m3]	refractive index	viscosity [mPa·s]
[1]	802.6	–	3.099
[2]	–	1.395	–

[1]
Details	vapor or sublimation pressure [kPa]
344.47 K	31.5
351.27 K	42.8
356.45 K	53.5
363.21 K	70.7
366.85 K	81.2
369.83 K	91.3
372.7 K	101.3

CCC(C)OCOC (stereo unspecified) [2-(methoxymethoxy)butane]
Details	mass density [kg/m3]	refractive index	viscosity [mPa·s]
[1]	836.4	–	0.561
[2]	–	1.3833	–

[1]
Details	vapor or sublimation pressure [kPa]
346.4 K	31.5
349.99 K	36.4
356.07 K	44.4
359.47 K	49.6
363.89 K	57.2
367.43 K	65.1
372.48 K	75.7
376.45 K	85.1
379.35 K	92
382.8 K	101.3
385.21 K	109.1
388.5 K	119
391.24 K	127.9
